Measurements from patent US9216179B2, “Treatment of gout and hyperuricemia” (ARDEA BIOSCIENCES, INC., priority 2010, dated 2015).

Columns and labels:
Patients [1] = test: Example 4 A: allopurinol 300 mg QD for 1 week followed by compound of Formula I, serum uric acid; format: in vivo, human
Description: A: Patients received allopurinol 300 mg QD for 1 week followed by a compound of Formula I. A compound of Formula I (200 mg) reduced serum uric acid levels 9% beyond the reduction observed for allopurinol alone. Titration up to 400 mg of a compound of Formula I provided further reduction of serum uric acid levels by 6%. The combination of a compound of Formula I (400 mg) and allopurinol provided 100% response (i.e., sUA <6 mg/dL) and an 80% sUA reduction below 5 mg/dL. These responses are illustrated in FIG. 6.

[2] = tested on: gout patients with sUA greater than 8 mg/dL; test: Example 6: open-label clinical pharmacology study, combination with febuxostat; details: for increases in serum creatinine (Grade): human, in vivo
Description: Also provided herein in certain embodiments is an open-label, clinical pharmacology study including 2 cohorts of gout patients with sUA greater than 8 mg/dL on no urate-lowering therapy. In some embodiments, patients received colchicine beginning one week prior to baseline and continuing for 5 weeks for flare prophylaxis. In other embodiments, the first cohort of patients in the study consisted of gout patients with a median baseline sUA of 9.2 mg/dL who were administered 40 mg febuxostat for the first week, 40 mg febuxostat in combination with 400 mg of a compound of formula I for the second week, and then 40 mg febuxostat in combination with 600 mg of a compound of formula I for the third week. […] In some embodiments, less than 40 mg, greater than 40 mg, less than 80 mg, greater than 80 mg, or any suitable amount of febuxostat was administered.
This 21-patient, open-label, clinical pharmacology study included 2 cohorts of gout patients with sUA greater than 8 mg/dL on no urate-lowering therapy. All patients received colchicine beginning one week prior to baseline and continuing for 5 weeks for flare prophylaxis.

[3] = tested on: gout patients with elevated uric acid levels; details: for serious adverse events or deaths: Phase 2b study, 28 days
Description: In some embodiments, for patients randomized to receive 400 mg a compound of formula I and 600 mg of a compound of formula I, a daily dose of compound of formula I was escalated weekly in increments of 200 mg/day.

patients with gout = test: Phase II gout dose response study, Lesinurad versus placebo (incidence of gout flares); format: in vivo, human
Description: Purpose: To compare the proportion of subjects whose serum urate (sUA) level is <6.0 mg/dL after 28 days of dosing by treatment group.
Official Title: Randomized, Double-Blind, Multicenter, Placebo-Controlled, Safety and Efficacy Study of Lesinurad Versus Placebo in the Treatment of Hyperuricemia in Patients With Gout
Experimental Dosage Form: 200 mg capsule of Lesinurad, with appropriate pharmaceutically acceptable excipients
Primary Outcome Measures: Compare the proportion of subjects whose serum urate (sUA) level is <6.0 mg/dL after 28 days of dosing by treatment group.
Secondary Outcome Measures: • Evaluate the proportion of subjects with sUA levels <6.0 mg/dL at each weekly study visit. • Evaluate absolute and percent reduction from baseline in sUA levels at each weekly study visit. • Evaluate the percent change in 24-hr urine urate level (excretion) from baseline to Day 28. • Evaluate the incidence of gout flares. • Evaluate the safety and tolerability of Lesinurad in subjects with gout.
Inclusion Criteria: • Male or post-menopausal or surgically sterile female. • Hyperuricemic (i.e., screening sUA ≧8 mg/dL). • Meets criteria for the diagnosis of gout as per the American Rheumatism Association (ARA) Criteria for the Classification of Acute Arthritis of Primary Gout (see Appendix B). • Willing and able to give informed consent and adhere to visit/protocol schedules (informed consent must be given before the first study procedure is performed).
Results: Incidence of gout flares are presented in Table 2 below indicating the majority of flares occurred in the first week when patients were receiving 200 mg QD (6/10 total flares on drug). Few additional flares occurred as dose increased, even with greater decrease in sUA. Duration of flares is shorter at higher doses, the opposite of what would be expected with greater reduction in sUA.

[4] = tested on: gout patients with sUA greater than 8 mg/dL; test: Example 7: open-label clinical pharmacology study, combination with allopurinol; format: in vivo, human
Description: This 20-patient, open-label clinical pharmacology study included 2 cohorts of gout patients with sUA greater than 8 mg/dL on no urate-lowering therapy who began colchicine dosing one week prior to baseline and continued for 5 weeks. […] Elevations in CK and rhabdomyolysis are known side effects of colchicine.

Patients [5] = details: Allopurinol Alone
Description: B: Patients received allopurinol alone for one week. For the second week, Panel 1 received a compound of Formula I (400 mg) and Panel 2 received a compound of Formula I (600 mg) in combination with allopurinol 300 mg.

[6] = tested on: individuals treated with the drug; details: in vivo; cited from earlier work
gout patients = details: controlled trials; cited from earlier work
IL-1 = IL-1 release/production after stimulation (FIG. 1, FIG. 3)
[7] = tested on: monosodium urate crystal-induced inflammatory response; test: rat air pouch model of crystal-induced arthropathy; format: in vivo, Sprague-Dawley rats; details: PO 10, 30, 100 mg/kg; 150 mg MSU; FIGS. 4 and 5
Description: • 1. […] NaOH was added as required to maintain pH between 8-9. The solution was filtered and incubated at ambient with slow stirring continuously for 24 hours. • b. Crystals were washed, dried and sterilized by autoclaving. • c. Crystals were suspended in sterile saline at 0.67 mg/ml, 2.67 mg/ml and 10 mg/ml just prior to use. • 2. 110 Sprague-Dawley rats (male, 160-180 g) were obtained. Following quarantine, rats were accepted for the Study if no signs of clinical distress were noted during the 3-day quarantine period. The rats were maintained on certified laboratory diet and water ad libitum. • 3. The rats were ear-notched for individual identification. • 4. The rat weights were recorded. • 5. […] Exudates volume was measured and recorded for each animal. • a. […] Plasma extravasation was measured by optical absorbance at 620 nm for each exudate sample. • 14. […] Mean cell counts and standard deviations were determined for each group. • b. Mean optical absorbance measurements and standard deviations were determined for each group. • c. Group means and standard deviations for TNF-alpha and IL-1 were determined for each group. • d. Statistical significance of treatments on mean cell counts, mean optical absorbance measurements and mean cytokine measurements were determined by comparison of means for treatment and positive control groups with vehicle group.

[8] = tested on: individuals treated with probenecid; details: in vivo; cited from earlier work
TNF-α = TNF-α production (FIG. 2); details: FIG. 2, 6 hour time point
[9] = Placebo qd + allopurinol, sUA <6 mg/dL after 4 weeks
[10] = Cohort 1, allopurinol 300 mg alone
[11] = Cohort 2, allopurinol 300 mg alone
[12] = Cohort 1, febuxostat 40 mg alone
[13] = Cohort 2, febuxostat 80 mg alone

O=C(O)CSc1nnc(Br)n1-c1ccc(C2CC2)c2ccccc12 [Formula I, 2-(5-bromo-4-(4-cyclopropylnaphthalen-1-yl)-4H-1,2,4-triazol-3-ylthio)acetic acid]
reduction of serum uric acid levels beyond the reduction observed for allopurinol alone (Patients [1]; Formula I 200 mg after allopurinol 300 mg QD for 1 week): 9%
further reduction of serum uric acid levels (Patients [1]; titration up to 400 mg): 6%
additional sUA reduction compared to febuxostat alone ([2]; addition of 600 mg to 40 mg febuxostat): 39%
additional sUA reduction compared to febuxostat alone ([2]; addition of 600 mg to 80 mg febuxostat): 51%
increases in serum creatinine (Grade) [2]: no Grade 2 or higher increases
serious adverse events or deaths [3]: no serious adverse events or deaths
% of patients with Flares by Dose at Time of Flare (patients with gout; 200 mg at time of flare): 6% (6/96)
Mean Duration of Flares (by Dose at Time of Flare) (patients with gout; 200 mg at time of flare): 4 days
% of patients with Flares by Dose at Time of Flare (patients with gout; 400 mg at time of flare): 2% (1/65)
Mean Duration of Flares (by Dose at Time of Flare) (patients with gout; 400 mg at time of flare): 2 days
% of patients with Flares by Dose at Time of Flare (patients with gout; 600 mg at time of flare): 9% (3/32)
Mean Duration of Flares (by Dose at Time of Flare) (patients with gout; 600 mg at time of flare): 1.7 days
Mean Duration of Flares (patients with gout; Randomized Dose Group 200 mg): 4 days
% Patients with Flares (patients with gout; Randomized Dose Group 200 mg qd for 28 days): 6%
Mean Duration of Flares (patients with gout; Randomized Dose Group 400 mg): 3.8 days
% Patients with Flares (patients with gout; Randomized Dose Group 400 mg (200 mg 7 days, 400 mg 21 days)): 12%
Mean Duration of Flares (patients with gout; Randomized Dose Group 600 mg): 1.5 days
% Patients with Flares (patients with gout; Randomized Dose Group 600 mg (200 mg 7 days, 400 mg 7 days, 600 mg 14 days)): 13%
Percent patients <5 mg/dL ([4]; Cohort 1, 400 mg alone): 0%
Percent sUA change at trough (median, from baseline) ([4]; Cohort 1, 400 mg alone): −28%
Percent sUA change intraday (median, from baseline) ([4]; Cohort 1, 400 mg alone): −44%
Response rate (<6 mg/dL) ([4]; Cohort 1, 400 mg alone): 20%
Percent patients <5 mg/dL ([4]; Cohort 2, 600 mg alone): 33%
Percent sUA change at trough (median, from baseline) ([4]; Cohort 2, 600 mg alone): −39%
Percent sUA change intraday (median, from baseline) ([4]; Cohort 2, 600 mg alone): −54%
Response rate (<6 mg/dL) ([4]; Cohort 2, 600 mg alone, listed as 2-(5-bromo-4-(4-cyclopropylnaphthalen-1-yl)-4H-1,2,4-triazol-3-ylthio)acetate): 67%
serious adverse events or discontinuations considered possibly related ([4]; human, in vivo): no serious adverse events or discontinuations

Oc1ncnc2[nH]ncc12 [allopurinol]
% Patients <4 mg/dL (Patients [5]): 0%
% Patients <5 mg/dL (Patients [5]): 9%
Response: % Patients <6 mg/dL (Patients [5]): 63%
sUA Mean % Reduction (Patients [5]): 32%
serious adverse events or deaths [3]: fatal myocardial infarction
Mean Change in Serum Urate at Week 4 vs. Baseline on Allopurinol Alone ([3]; Placebo qd + allopurinol): +3%
Response Rate (ITT Analysis) [3, 9]: 25%
Response Rate (LOCF Analysis) [3, 9]: 29%
patients who discontinued treatment due to an adverse event ([3]; human, in vivo): three
incidence of side effects, of all individuals treated [6]: 20%
patients achieving target sUA levels below 6 mg/dL ([4]; 300 mg allopurinol alone): 20%
Response rate (<6 mg/dL) ([4]; Cohort 1 (median baseline 9.8 mg/dL), allopurinol 300 mg alone): 10%
Percent patients <5 mg/dL [4, 10]: 5%
Percent sUA change at trough (median, from baseline) [4, 10]: −31%
Percent sUA change intraday (median, from baseline) [4, 10]: −38%
Response rate (<6 mg/dL) ([4]; Cohort 2 (median baseline 9.1 mg/dL), allopurinol 300 mg alone): 30%
Percent patients <5 mg/dL [4, 11]: 5%
Percent sUA change at trough (median, from baseline) [4, 11]: −27%
Percent sUA change intraday (median, from baseline) [4, 11]: −35%
gout patients responding adequately (sUA less than 6 mg/dL) (gout patients): 30-40%

COc1cc2c(c(OC)c1OC)-c1ccc(OC)c(=O)cc1[C@@H](NC(C)=O)CC2 [colchicine]
increases in serum creatinine (Grade) [2]: one Grade 2 serum creatinine increase

O=C([O-])CSc1nnc(Br)n1-c1ccc(C2CC2)c2ccccc12.[Na+] [compound 1, 2-(5-Bromo-4-(4-cyclopropylnaphthalen-1-yl)-4H-1,2,4-triazol-3-ylthio)acetate sodium salt]
blocks IL-1 release, time after stimulation (IL-1; FIG. 1): ≤ 1 h
monosodium urate crystal-induced inflammatory response [7]: blocked

Cc1nc(-c2ccc(OCC(C)C)c(C#N)c2)sc1C(=O)O [febuxostat]
Response rate (<6 mg/dL) ([2]; Cohort 1 (median baseline 9.2 mg/dL), febuxostat 40 mg alone): 67%
Response rate (<6 mg/dL) ([2]; Cohort 1 (median baseline 9.2 mg/dL), febuxostat 40 mg alone, listed as Febuxostat): 67%
Percent patients <4 mg/dL [2, 12]: 0%
Percent sUA change at trough (median, from baseline) [2, 12]: −35%
Percent sUA change intraday (median, from baseline) [2, 12]: −44%
Response rate (<6 mg/dL) ([2]; Cohort 2 (median baseline […]), febuxostat 80 mg alone): 56%
Response rate (<6 mg/dL) ([2]; Cohort 2 (median baseline […]), febuxostat 80 mg alone, listed as Febuxostat): 56%
Percent patients <4 mg/dL [2, 13]: 0%
Percent sUA change at trough (median, from baseline) [2, 13]: −47%
Percent sUA change intraday (median, from baseline) [2, 13]: −52%
patients achieving sUA levels below 4 mg/dL or below 3 mg/dL ([2]; either dose of febuxostat alone): No patient

CCCN(CCC)S(=O)(=O)c1ccc(C(=O)O)cc1 [probenecid]
individuals developing intolerance [8]: one-third
individuals failing to achieve reduction of serum uric acid levels <6 mg/dL [8]: 25-50%

rilonacept
IL-1 production (IL-1; FIG. 3): does not reduce
production of TNF-α (TNF-α): inhibits
